This note sets out measurements from article PMC4685510, “A Cell Biologist’s Field Guide to Aurora Kinase Inhibitors” (Frontiers in Oncology, 2015).

Common to all, as to assay: biochemical
Format in all cases: biochemical

Test [1] addresses T1, 363 human kinases (including Aurora A/B/C) (Homo sapiens, UniProt O95835).
T1 sequence (O95835 1-1130): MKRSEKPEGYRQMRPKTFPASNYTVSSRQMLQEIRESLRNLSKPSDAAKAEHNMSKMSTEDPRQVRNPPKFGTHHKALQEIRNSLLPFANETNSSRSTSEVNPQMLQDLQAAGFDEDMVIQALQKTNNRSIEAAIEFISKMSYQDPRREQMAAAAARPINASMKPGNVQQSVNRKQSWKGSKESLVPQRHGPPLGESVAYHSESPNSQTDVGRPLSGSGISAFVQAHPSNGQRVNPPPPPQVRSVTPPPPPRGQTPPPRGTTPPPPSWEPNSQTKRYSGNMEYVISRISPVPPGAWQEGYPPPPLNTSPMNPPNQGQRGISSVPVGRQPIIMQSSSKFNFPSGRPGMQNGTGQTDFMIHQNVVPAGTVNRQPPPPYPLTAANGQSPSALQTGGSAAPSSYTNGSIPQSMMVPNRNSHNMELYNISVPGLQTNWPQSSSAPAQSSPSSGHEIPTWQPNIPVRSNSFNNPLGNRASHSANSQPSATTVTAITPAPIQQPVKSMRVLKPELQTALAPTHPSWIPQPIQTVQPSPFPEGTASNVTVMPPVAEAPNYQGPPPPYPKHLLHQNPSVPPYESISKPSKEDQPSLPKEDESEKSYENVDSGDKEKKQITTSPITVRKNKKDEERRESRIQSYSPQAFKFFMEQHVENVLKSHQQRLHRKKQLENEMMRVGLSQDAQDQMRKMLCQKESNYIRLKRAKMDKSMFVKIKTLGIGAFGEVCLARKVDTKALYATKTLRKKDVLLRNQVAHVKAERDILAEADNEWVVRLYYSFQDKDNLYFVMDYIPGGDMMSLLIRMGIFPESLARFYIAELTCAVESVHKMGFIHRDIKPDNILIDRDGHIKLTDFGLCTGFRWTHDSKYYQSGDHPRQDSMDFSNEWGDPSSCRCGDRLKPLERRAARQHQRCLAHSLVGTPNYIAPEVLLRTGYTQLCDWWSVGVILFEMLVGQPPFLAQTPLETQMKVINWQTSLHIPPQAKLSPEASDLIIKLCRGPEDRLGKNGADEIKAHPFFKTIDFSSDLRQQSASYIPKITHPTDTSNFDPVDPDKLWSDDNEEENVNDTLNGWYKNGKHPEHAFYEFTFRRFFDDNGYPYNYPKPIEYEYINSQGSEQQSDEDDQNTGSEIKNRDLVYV
Conditions: LATS1; for remaining activity at 0.5 µM / remaining activity at 0.1 µM: read-out: % Enzyme Activity (relative to DMSO controls); for remaining activity at 0.1 µM: 100 nM.
Description: (§1) However, the Aurora A/B selectivity ratios derived from our in vitro and in vivo data can be compared to prioritize inhibitors.

Test [2] addresses 363 human kinases (including Aurora A/B/C) (Homo sapiens, UniProt Q9Y6M4). Conditions: CK1g3, [ATP] 10 µM; for remaining activity at 0.5 µM / remaining activity at 0.1 µM: read-out: % Enzyme Activity (relative to DMSO controls); for remaining activity at 0.1 µM: 100 nM.
Description: as §1
For test [3], the target named is T2, 363 human kinases (including Aurora A/B/C) (Homo sapiens, UniProt P29322).
T2 sequence (P29322 28-1005): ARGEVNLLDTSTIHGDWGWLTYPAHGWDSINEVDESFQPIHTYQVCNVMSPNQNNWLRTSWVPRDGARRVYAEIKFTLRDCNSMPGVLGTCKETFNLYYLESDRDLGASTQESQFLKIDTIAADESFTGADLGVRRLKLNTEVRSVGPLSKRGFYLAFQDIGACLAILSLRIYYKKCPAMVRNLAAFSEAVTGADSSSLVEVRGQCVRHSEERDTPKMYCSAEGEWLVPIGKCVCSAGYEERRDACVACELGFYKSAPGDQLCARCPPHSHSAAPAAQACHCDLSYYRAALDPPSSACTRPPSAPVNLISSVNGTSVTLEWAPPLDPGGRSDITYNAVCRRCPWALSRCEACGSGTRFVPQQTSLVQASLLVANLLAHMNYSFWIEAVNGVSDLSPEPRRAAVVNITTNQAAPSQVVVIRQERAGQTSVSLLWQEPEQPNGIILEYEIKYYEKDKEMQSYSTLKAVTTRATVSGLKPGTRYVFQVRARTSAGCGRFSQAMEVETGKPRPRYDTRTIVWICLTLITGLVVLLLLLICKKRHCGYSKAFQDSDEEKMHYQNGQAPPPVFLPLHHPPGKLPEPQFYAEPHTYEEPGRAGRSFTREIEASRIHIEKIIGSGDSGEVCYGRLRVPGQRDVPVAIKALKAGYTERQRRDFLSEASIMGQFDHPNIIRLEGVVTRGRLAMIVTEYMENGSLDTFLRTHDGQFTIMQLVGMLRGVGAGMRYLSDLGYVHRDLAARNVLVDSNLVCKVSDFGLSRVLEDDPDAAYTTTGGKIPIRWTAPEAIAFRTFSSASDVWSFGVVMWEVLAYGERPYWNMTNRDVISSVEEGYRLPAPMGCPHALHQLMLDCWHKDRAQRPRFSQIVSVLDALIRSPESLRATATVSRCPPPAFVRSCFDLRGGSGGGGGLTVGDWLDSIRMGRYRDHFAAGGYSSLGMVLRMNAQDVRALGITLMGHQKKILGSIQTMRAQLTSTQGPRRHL
To be noted: EPHA8, [ATP] 100 µM; for remaining activity at 0.5 µM / remaining activity at 0.1 µM: read-out: % Enzyme Activity (relative to DMSO controls); for remaining activity at 0.1 µM: 100 nM.
Description: as §1

In test [4] the target is 363 human kinases (including Aurora A/B/C) (Homo sapiens, UniProt P16591). To be noted: FER, [ATP] 50 µM; for remaining activity at 0.5 µM / remaining activity at 0.1 µM: read-out: % Enzyme Activity (relative to DMSO controls); for remaining activity at 0.1 µM: 100 nM.
Description: as §1
Test [5] addresses 363 human kinases (including Aurora A/B/C) (Homo sapiens, UniProt Q9H1R3). Conditions: MLCK2/MYLK2; for remaining activity at 0.5 µM / remaining activity at 0.1 µM: read-out: % Enzyme Activity (relative to DMSO controls); for remaining activity at 0.1 µM: 100 nM.
Description: as §1
Test [6] has as its target 363 human kinases (including Aurora A/B/C) (Homo sapiens, UniProt Q15418). To be noted: RSK1; for remaining activity at 0.5 µM / remaining activity at 0.1 µM: read-out: % Enzyme Activity (relative to DMSO controls); for remaining activity at 0.1 µM: 100 nM.
Description: as §1
The target in test [7] is 363 human kinases (including Aurora A/B/C) (Homo sapiens, UniProt Q9Y2K2). Conditions: SIK3; for remaining activity at 0.5 µM / remaining activity at 0.1 µM: read-out: % Enzyme Activity (relative to DMSO controls); for remaining activity at 0.1 µM: 100 nM.
Description: as §1

SMILES strings stand for the structures.

363 human kinases (including Aurora A/B/C) (Homo sapiens, UniProt Q15418), sequence (Q15418 whole entry): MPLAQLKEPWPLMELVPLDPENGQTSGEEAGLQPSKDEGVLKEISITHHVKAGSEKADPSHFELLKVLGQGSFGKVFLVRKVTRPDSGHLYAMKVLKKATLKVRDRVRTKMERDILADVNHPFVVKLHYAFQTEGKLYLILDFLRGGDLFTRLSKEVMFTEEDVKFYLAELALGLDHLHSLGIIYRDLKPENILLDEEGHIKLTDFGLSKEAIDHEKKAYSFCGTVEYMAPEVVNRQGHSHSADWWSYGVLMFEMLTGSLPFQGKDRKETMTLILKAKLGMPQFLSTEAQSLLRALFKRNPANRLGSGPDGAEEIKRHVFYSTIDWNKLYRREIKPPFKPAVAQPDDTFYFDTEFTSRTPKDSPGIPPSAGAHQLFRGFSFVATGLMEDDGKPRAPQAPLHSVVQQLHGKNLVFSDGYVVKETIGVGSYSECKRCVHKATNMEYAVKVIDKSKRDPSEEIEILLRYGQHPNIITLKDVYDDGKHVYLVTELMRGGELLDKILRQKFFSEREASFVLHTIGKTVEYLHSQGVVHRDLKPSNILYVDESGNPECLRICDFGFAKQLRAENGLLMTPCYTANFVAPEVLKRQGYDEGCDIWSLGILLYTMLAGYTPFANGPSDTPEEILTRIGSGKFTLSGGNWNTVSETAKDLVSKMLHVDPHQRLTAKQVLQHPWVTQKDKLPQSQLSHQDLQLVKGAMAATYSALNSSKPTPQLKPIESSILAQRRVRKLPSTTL
363 human kinases (including Aurora A/B/C) (Homo sapiens, UniProt Q9Y2K2), sequence (Q9Y2K2 whole entry): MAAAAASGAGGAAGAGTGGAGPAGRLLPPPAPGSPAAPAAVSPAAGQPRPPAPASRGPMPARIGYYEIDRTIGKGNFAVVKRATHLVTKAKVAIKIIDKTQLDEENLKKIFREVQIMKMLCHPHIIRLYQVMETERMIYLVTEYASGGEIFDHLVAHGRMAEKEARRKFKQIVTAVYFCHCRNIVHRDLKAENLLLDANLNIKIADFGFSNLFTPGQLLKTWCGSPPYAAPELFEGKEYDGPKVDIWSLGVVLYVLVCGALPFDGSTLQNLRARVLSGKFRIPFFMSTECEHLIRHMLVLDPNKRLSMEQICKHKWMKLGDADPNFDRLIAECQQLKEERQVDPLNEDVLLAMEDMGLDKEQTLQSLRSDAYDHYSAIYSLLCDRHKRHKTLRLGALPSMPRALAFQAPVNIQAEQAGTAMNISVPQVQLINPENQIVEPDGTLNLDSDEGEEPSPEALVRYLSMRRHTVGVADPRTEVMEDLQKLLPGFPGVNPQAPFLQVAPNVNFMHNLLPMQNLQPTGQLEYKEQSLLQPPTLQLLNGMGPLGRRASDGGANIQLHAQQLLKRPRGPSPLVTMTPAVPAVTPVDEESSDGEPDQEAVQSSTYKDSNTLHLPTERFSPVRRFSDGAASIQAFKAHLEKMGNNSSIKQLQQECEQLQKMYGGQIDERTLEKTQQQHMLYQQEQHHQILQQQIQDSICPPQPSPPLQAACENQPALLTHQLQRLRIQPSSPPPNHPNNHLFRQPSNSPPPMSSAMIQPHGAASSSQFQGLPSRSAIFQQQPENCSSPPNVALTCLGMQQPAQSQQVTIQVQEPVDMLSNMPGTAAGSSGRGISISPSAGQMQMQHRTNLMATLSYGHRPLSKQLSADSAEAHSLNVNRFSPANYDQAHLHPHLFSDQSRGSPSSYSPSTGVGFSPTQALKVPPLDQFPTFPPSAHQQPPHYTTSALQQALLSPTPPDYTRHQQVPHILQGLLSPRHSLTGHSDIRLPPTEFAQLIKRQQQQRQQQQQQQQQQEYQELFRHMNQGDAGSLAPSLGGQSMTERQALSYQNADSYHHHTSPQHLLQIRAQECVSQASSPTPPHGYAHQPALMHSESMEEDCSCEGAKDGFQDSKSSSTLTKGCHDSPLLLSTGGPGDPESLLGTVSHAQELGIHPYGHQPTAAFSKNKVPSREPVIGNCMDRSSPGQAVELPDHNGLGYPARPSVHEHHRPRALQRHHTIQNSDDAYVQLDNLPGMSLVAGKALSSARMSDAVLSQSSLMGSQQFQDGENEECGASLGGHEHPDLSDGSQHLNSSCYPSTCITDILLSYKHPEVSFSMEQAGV
363 human kinases (including Aurora A/B/C) (Homo sapiens, UniProt P16591), sequence (P16591 whole entry): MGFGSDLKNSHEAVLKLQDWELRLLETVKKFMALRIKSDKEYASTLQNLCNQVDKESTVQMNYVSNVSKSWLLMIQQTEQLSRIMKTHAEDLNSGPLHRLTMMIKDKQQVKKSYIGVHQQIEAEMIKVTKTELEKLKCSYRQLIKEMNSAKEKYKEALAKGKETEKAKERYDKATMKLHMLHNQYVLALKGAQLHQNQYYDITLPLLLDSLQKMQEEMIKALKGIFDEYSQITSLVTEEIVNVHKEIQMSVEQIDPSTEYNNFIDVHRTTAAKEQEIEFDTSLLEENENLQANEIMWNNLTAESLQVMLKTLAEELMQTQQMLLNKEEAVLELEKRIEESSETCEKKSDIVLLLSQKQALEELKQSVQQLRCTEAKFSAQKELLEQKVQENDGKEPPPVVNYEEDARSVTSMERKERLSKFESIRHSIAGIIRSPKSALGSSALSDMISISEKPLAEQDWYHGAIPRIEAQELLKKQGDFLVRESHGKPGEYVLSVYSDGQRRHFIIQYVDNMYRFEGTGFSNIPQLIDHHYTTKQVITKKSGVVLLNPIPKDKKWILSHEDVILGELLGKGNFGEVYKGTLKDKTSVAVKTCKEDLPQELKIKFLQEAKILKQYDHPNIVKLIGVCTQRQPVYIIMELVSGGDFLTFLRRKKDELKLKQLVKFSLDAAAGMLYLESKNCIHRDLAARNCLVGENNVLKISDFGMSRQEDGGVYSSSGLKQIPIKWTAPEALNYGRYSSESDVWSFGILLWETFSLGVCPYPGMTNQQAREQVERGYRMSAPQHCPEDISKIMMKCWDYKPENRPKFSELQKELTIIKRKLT
363 human kinases (including Aurora A/B/C) (Homo sapiens, UniProt Q9H1R3), sequence (Q9H1R3 whole entry): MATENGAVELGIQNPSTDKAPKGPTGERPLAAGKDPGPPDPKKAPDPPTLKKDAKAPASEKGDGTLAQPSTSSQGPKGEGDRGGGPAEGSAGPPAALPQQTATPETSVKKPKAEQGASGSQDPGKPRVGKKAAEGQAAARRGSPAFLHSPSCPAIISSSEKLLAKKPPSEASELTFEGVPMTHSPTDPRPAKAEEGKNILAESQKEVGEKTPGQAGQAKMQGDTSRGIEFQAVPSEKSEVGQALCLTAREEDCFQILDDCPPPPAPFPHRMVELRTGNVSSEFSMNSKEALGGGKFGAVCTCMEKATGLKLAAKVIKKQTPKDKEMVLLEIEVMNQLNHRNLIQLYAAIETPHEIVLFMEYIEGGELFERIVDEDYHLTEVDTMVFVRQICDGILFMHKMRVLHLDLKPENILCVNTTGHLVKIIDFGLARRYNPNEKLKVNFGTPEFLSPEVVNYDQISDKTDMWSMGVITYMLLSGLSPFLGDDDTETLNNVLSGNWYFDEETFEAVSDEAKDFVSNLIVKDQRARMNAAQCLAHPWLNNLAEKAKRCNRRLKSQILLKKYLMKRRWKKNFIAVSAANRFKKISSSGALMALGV
363 human kinases (including Aurora A/B/C) (Homo sapiens, UniProt Q9Y6M4), sequence (Q9Y6M4 whole entry): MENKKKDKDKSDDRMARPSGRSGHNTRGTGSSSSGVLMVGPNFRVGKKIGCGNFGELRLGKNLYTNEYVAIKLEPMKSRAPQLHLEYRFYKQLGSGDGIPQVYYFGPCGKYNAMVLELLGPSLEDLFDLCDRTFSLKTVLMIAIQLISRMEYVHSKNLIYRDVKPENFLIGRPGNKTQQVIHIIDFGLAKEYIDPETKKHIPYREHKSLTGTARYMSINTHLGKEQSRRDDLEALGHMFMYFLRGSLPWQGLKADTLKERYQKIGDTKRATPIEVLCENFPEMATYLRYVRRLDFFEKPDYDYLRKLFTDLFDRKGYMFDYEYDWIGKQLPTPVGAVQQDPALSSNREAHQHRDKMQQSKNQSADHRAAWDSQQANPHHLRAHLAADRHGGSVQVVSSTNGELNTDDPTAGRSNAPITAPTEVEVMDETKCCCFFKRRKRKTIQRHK

As to `O=C(c1cccc(Cl)c1F)N1CCN(Cc2cccc(Nc3nccs3)n2)CC1` [MK-8745], the “% Enzyme Activity (relative to DMSO controls)” value is listed as 96.46% in test [1] (500 nM); 98.01% in test [2] (500 nM); 85.09% in test [3] (500 nM); 82.62% in test [4] (500 nM); 94.16% in test [5] (500 nM); 93.60% in test [6] (500 nM). Moreover, in test [7] (500 nM), the “% Enzyme Activity (relative to DMSO controls)” value is on record as 91.26%. Besides, the remaining activity at 0.5 µM in test [1] (500 nM) came out at 96.8%; in test [2] (500 nM), 98.6%; in test [3] (500 nM), 86.1%; in test [4] (500 nM), 83.7%; in test [5] (500 nM) it was 94.3%; in test [6] (500 nM) it was 95.8%. In addition, the remaining activity at 0.5 µM in test [7] (500 nM) came to 93.5%.
For the compound `CCn1cc(-c2ccnc3[nH]c(-c4cccc(CN(C)C)c4)cc23)c(-c2ccc(NC(=O)N(C)C)cc2)n1` [GSK1070916], the remaining activity at 0.1 µM in test [1] turned out to be 97.5%; in test [2], 95%; in test [3], 92%; in test [4], 96.5%; in test [5], 96.2%; in test [6], 90%. In test [7], the remaining activity at 0.1 µM was found to be 87.8%.
In the case of `O=C(O)[C@]1(Cc2cccc(Nc3nccs3)n2)CC[C@@H](Oc2cccc(Cl)c2F)CC1` [MK-5108], the remaining activity at 0.1 µM in test [1] came out at 98.5%; in test [2], 100%; in test [3], 88.7%; in test [4], 87%; in test [5], 102%; in test [6], 99.1%. Moreover, the remaining activity at 0.1 µM in test [7] was found to be 97.3%. Moreover, the remaining activity at 0.5 µM in test [1] (500 nM) came out at 94.1%; in test [2] (500 nM) it was 94.6%; in test [3] (500 nM), 67.9%; in test [4] (500 nM), 49.8%; in test [5] (500 nM), 97.8%; in test [6] (500 nM) it was 91.2%. Moreover, in test [7] (500 nM), the remaining activity at 0.5 µM amounted to 103%.
